The values that follow come from publication PMC7488503 (Acta Pharmaceutica Sinica. B, 2020).

For one test, the target named is VEGFR2 (Homo sapiens, UniProt P35968). Nature of the test: Z′-LYTE kinase inhibition assay.
A further test has as its target FGFR1 (Homo sapiens, UniProt P11362). Kind of test: Z′-LYTE kinase inhibition assay.
The target in a further test is PDGFRβ (Homo sapiens, UniProt P09619). Nature of the test: Z′-LYTE kinase inhibition assay.
Another test concerns HUVECs. Kind of test: VEGF-induced HUVECs proliferation. Format: cell-based. The following applies: Homo sapiens, HUVEC, 72 h, read-out: IC50 HUVECs.
A further test deals with HBVPs. Kind of test: PDGF-BB-induced HBVPs proliferation. It counts as cell-based. The following applies: Homo sapiens, 48 h, read-out: IC50 HBVPs.
For test [1], the system named is A549 lung cancer xenograft. Kind of test: A549 lung cancer subcutaneous xenograft model. It counts as in vivo, Balb/c nude mice.
Test [2] concerns NCI-H520 lung cancer xenograft. Kind of test: NCI-H520 lung cancer subcutaneous xenograft model. Format: in vivo, Balb/c nude mice.
Test [3] concerns patient-derived tumor (LI-03-0020) xenograft. Nature of the test: Liver cancer patient-derived tumor xenograft. It counts as in vivo, Balb/c nude mice. The note with it: liver cancer PDX model, 60 mg/kg oral QD.

Sequence of VEGFR2 (P35968 20-1356): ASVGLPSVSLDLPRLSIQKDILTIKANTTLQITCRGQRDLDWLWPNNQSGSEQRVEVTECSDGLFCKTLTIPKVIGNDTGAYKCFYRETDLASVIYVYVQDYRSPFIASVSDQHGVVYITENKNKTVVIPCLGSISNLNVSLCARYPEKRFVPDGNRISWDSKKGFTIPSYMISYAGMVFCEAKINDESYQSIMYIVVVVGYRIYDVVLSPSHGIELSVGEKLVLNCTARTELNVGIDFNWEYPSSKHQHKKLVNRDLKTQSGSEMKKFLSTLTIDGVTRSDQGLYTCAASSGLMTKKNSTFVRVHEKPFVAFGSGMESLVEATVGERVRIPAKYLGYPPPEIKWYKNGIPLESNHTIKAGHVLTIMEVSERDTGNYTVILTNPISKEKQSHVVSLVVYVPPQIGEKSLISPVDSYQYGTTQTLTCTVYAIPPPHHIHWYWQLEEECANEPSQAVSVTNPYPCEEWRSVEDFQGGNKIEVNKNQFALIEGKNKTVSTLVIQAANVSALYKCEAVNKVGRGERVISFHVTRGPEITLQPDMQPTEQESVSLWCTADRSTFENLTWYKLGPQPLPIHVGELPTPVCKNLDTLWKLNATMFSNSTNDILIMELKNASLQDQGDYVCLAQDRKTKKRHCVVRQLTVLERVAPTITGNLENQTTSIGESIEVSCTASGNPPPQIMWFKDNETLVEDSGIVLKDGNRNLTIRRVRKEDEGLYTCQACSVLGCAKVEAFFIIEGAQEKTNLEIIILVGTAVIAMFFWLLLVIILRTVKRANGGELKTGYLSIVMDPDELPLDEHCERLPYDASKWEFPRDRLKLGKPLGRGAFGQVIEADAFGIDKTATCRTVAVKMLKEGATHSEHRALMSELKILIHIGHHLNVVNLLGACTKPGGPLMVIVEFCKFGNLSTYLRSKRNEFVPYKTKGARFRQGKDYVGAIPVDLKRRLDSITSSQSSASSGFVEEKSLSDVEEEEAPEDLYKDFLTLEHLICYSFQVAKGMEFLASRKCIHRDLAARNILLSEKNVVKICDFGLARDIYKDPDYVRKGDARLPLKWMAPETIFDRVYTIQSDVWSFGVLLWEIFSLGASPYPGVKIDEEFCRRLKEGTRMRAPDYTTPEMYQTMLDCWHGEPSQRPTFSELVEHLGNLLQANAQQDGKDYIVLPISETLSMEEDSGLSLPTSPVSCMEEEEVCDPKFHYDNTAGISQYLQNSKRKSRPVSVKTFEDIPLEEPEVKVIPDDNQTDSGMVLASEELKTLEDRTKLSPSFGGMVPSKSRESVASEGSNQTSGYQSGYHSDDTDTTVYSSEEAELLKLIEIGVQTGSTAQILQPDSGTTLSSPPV
Sequence of PDGFRβ (P09619 33-1106): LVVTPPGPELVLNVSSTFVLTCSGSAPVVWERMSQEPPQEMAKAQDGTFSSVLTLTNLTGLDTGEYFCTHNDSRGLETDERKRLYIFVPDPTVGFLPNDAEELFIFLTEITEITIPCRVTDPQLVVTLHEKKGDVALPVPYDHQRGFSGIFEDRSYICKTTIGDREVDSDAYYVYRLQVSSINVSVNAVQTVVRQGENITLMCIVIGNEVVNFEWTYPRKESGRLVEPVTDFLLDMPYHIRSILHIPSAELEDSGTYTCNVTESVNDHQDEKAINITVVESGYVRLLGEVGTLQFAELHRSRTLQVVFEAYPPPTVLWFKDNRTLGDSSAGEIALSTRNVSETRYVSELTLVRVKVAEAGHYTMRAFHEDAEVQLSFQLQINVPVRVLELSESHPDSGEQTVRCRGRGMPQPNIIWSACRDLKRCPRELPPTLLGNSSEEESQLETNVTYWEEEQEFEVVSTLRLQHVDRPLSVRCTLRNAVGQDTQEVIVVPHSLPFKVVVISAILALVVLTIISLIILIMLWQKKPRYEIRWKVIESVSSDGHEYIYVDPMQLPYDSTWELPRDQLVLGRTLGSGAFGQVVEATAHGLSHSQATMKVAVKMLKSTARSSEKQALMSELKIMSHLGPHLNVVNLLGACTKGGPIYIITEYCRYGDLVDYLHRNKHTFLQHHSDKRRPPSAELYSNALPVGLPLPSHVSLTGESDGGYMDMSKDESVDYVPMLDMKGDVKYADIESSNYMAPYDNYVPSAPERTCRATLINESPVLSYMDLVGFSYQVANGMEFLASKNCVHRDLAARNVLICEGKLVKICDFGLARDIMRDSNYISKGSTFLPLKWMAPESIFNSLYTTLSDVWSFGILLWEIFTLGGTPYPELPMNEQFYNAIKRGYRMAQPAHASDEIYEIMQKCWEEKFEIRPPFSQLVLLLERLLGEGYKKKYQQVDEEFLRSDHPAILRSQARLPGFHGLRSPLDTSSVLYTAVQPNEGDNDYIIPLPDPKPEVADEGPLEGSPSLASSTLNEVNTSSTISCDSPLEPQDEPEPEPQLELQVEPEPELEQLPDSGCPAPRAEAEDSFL
Sequence of FGFR1 (P11362 22-822): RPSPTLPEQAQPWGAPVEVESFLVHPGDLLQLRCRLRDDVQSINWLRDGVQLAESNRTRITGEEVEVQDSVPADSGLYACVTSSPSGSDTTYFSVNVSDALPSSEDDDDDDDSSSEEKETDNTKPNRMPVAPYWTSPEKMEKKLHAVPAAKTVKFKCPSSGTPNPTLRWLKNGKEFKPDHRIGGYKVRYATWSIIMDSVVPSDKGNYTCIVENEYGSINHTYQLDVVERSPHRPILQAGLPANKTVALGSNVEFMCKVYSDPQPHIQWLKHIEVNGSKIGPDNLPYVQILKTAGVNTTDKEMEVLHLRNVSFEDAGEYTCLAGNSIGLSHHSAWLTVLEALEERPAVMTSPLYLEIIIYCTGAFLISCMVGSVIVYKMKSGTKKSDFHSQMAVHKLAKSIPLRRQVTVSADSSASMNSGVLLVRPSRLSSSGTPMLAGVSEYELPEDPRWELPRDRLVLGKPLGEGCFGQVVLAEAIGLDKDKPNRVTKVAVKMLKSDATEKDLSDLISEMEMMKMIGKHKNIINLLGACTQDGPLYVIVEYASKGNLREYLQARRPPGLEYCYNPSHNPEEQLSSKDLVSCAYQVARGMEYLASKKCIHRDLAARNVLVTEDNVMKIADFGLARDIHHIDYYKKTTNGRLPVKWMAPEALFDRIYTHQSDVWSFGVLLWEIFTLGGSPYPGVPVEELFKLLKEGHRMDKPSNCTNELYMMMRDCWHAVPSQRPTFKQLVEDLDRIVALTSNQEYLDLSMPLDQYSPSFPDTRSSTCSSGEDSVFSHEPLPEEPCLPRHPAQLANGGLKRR

The term IC50 denotes the point on the concentration scale where inhibition reaches its midpoint. Regarding `O=C1NCOc2cc3nccc(Oc4ccc(NC(=S)NC5CC5)c(Cl)c4)c3cc21` [B3], the IC50 against VEGFR2 worked out at 227 nM; at FGFR1 it was 777 nM; at PDGFRβ it was 410 nM.

With `COc1cc2nccc(Oc3ccc(NC(N)=S)c(Cl)c3)c2cc1C(N)=O` [C1], the IC50 against VEGFR2 is 32.7 nM; against FGFR1, 436 nM; against PDGFRβ, 77.2 nM.

What is called T/C is the result in the treated group divided by that in the control group, in per cent. For orientation: TGI means how far tumour growth fell short of that in controls. Low values mean a weaker effect on the tumour, high ones a stronger effect on the tumour. As to `COC(=O)c1ccc2c(c1)NC(=O)/C2=C(\Nc1ccc(N(C)C(=O)CN2CCN(C)CC2)cc1)c1ccccc1` [Nintedanib, reference compound], the IC50 in the test on HUVECs turned out to be 41 nM; in the test with HBVPs it was 1670 nM. Moreover, the T/C is reported as 26% in test [1] (100 mg/kg p.o. QD, Day 21) and 45% in test [2] (100 mg/kg p.o. QD, Day 21). The TGI in test [1] (100 mg/kg p.o. QD, Day 21) turned out to be 80%; in test [2] (100 mg/kg p.o. QD, Day 21) it was 62%. Also, the “Tumor volume at Day 21” value in test [1] (100 mg/kg p.o. QD, mean ± SEM) is given as 391 ± 43 mm^3; in test [2] (100 mg/kg p.o. QD, mean ± SEM) it was 585 ± 101 mm^3. Besides, the “area of CD31 (tumor micro-vessel density, IHC)” value amounted to 1.05 ± 0.33 in test [1] (100 mg/kg, mean ± SEM, n = 3, control 3.38 ± 0.49) and 1.99 ± 0.04 in test [2] (100 mg/kg, mean ± SEM, n = 3, control 4.96 ± 0.62).

Consider `CNC(=O)c1cc(Oc2ccc(NC(=O)Nc3ccc(Cl)c(C(F)(F)F)c3)cc2)ccn1` [Sorafenib, reference compound], for which, in test [3] (Day 21), the T/C came to 31% and the TGI stood at 80%. Moreover, the “Tumor volume at Day 21” value in test [3] (mean ± SEM) was determined as 304 ± 73 mm^3.

`COc1cc2nccc(Oc3ccc(NC(=S)NC4CC4)c(Cl)c3)c2cc1C(N)=O` [WXFL-255, 4-(3-chloro-4-(3-cyclopropylthioureido)phenoxy)-7-methoxyquinoline-6-carboxamide]: the IC50 was 90.2 nM with HUVECs, 9.4 nM on VEGFR2, 188 nM on FGFR1 and 143 nM against PDGFRβ.
